Tests used:
Format in all cases: physicochemical
[1] = Drying studies of Compound 1 Hydrochloride (XRPD, TGA)
Experimental: Compound 1 Hydrochloride Form A was then subjected to drying under various conditions.
Drying studies of Compound 1 Hydrochloride Form A (Type 1 Lot) were performed.
Variability in the drying profiles of different lots of Compound 1 Hydrochloride were noted, particularly with regards to the transition between Form A and Form C. The variable behavior appeared to depend upon the nature of the input Form A batch (e.g., how it was generated and then conditioned, if at all, prior to drying, and/or if excess hydrochloric acid was present).
Concentrated HCl (154 μL, 1 eqiuv) was added which clarified the suspension to a deep orange solution. The mixture was equilibrated for 30 minutes before cooling gradually to room temperature. A thin yellow suspension resulted. The solvent volume was reduced by 50% which thickened the suspension. The suspension was matured overnight, following which the solid was filtered to isolate the solids. The solid was air dried for ˜30 minutes giving a yellow solid (damp mass: 1.24 g; pH measured at 5.0). The XRPD pattern of the damp solid corresponded with Compound 1 Hydrochloride Form H. Analysis of the damp solid by DSC and TGA indicated a water content of 8.2%, which was fairly labile up ˜75° C.
Compound 1 Hydrochloride Form H was then subjected to a drying study under various conditions.
The solids were further subjected to prolonged drying.

[2] = Solid state stability under humid conditions (40° C./75% RH and 25° C./60% RH, two weeks)
Experimental: Stability of Compound 1 Hydrochloride Forms A, B, C, and D was evaluated under humid conditions. Samples of Forms A, B, C, and D were stored at 40° C./75% RH and 25° C./60% RH for a period of two weeks (loosely capped glass vials with approx. 200 mg solid). Solids were then re-analyzed using methods described herein. A summary of the results is provided in Table 12 (after storage at 25° C./60% RH) and Table 13 (after storage at 40° C./75% RH).

[3] = Organic solubility (thermodynamic, 25° C., heating cycle to 75° C.); conditions: for Solubility at 25° C.: 20 volumes; for XRPD after heat/cool cycle: cycle up to 75° C.
Experimental: Compound 1 Hydrochloride Form A (Type 1 Lot) (ca. 50 mg) was equilibrated in a range of organic solvents in order to collect thermodynamic values for solubility. Solvents were charged in 500 μL aliquots (ca. 10 volumes) to the Compound 1 Hydrochloride Form A (Type 1 Lot) dispensed as a powder (ca. 50 mg) in 16 mm diameter glass reaction tubes until dissolution was achieved or up to 1000 μL (ca. 20 volumes) total volume was charged, with observations noted during dosing. The samples were equilibrated at 25° C. for a minimum of 24 hours with stirrer bead agitation.
Samples which remained as suspensions and contained enough solids were split into two equal portions, with one portion isolated by filtration and the resulting damp solids profiled by XRPD. These solids were then dried in vacuo at 45° C. for ca. 16 hours before further profiling. The filtrates from the solvent suspensions were isolated, diluted by 1 in 50 using acetonitrile/water (1:1), and the Compound 1 content determined by HPLC against a single point standard.
The remaining portion of each suspension was subjected to a heating cycle up to 75° C. with equilibration at 10° C. temperature intervals for a minimum of 30 minutes, before allowing to cool naturally to 40° C., followed by equilibration for ca. 16 hours before continuing to cool naturally (approximately 10° C./hr) to 25° C.

[4] = Dry in vacuo at 25° C., T = 24 h
[5] = Dry in vacuo at 25° C., T = 96 h
[6] = Dry in vacuo at 25° C., T = 120 h
[7] = Dry in vacuo at 45° C., T = 24 h
[8] = Dry in vacuo at 45° C., T = 96 h
[9] = Dry in vacuo at 45° C., T = 120 h
[10] = Dry in vacuo at 70° C., T = 24 h
[11] = Dry in vacuo at 70° C., T = 96 h
[12] = Dry in vacuo at 70° C., T = 120 h

COC(=O)c1ccc2c(c1)NC(=O)/C2=C(\Nc1ccc(N(C)C(=O)CN2CCN(C)CC2)cc1)c1ccccc1.Cl [Compound 1 Hydrochloride Form A (Type 1 Lot)]
TGA (%) [1, 4]: 11.12% | XRPD [1, 4]: Form A | TGA (%) [1, 5]: 10.14% | XRPD [1, 5]: Form A | TGA (%) [1, 6]: 10.47% | XRPD [1, 6]: Form A | TGA (%) [1, 7]: 9.84% | XRPD [1, 7]: Form A | TGA (%) [1, 8]: 8.71% | XRPD [1, 8]: Form A | TGA (%) [1, 9]: 10.19% | XRPD [1, 9]: Form A | TGA (%) [1, 10]: 10.48% | XRPD [1, 10]: Form A | TGA (%) [1, 11]: 8.19% | XRPD [1, 11]: Form A | TGA (%) [1, 12]: 10.85% | XRPD [1, 12]: Form A | TGA (%) ([1]; T = 0, before drying): 9.673% | TGA After Storage: further loss above/post 200° C. ([2]; 25° C./60% RH): 100° C., further loss of 0.96% | TGA After Storage: total water content ([2]; 25° C./60% RH): of 10.9% | XRPD After Storage ([2]; 25° C./60% RH): Form A | TGA After Storage: further loss above/post 200° C. ([2]; 40° C./75% RH): 100° C., further loss of 1.05% | TGA After Storage: total water content ([2]; 40° C./75% RH): of 11.18% | TGA After Storage: weight reduction up to 100° C. ([2]; 40° C./75% RH): Weight reduction of 10.13% up to | XRPD After Storage ([2]; 40° C./75% RH): Form A | Observation after heat/cool cycle [3]: Suspension | XRPD after equilibration at 25° C. ([3]; 2-Butanone): Form C | Solubility at 25° C. ([3]; 2-Butanone): 4.9 µg/mL | XRPD after heat/cool cycle ([3]; 2-Butanone): Form C | XRPD after equilibration at 25° C. ([3]; 2-Propanol): Form C | Solubility at 25° C. ([3]; 2-Propanol): 60 µg/mL | XRPD after heat/cool cycle ([3]; 2-Propanol): Form C | XRPD after equilibration at 25° C. ([3]; Acetone): Form C | Solubility at 25° C. ([3]; Acetone): 14.4 µg/mL | XRPD after heat/cool cycle ([3]; Acetone): Form C | XRPD after equilibration at 25° C. ([3]; Acetonitrile): Form C | Solubility at 25° C. ([3]; Acetonitrile): 170 µg/mL | XRPD after heat/cool cycle ([3]; Acetonitrile): Form C | Solubility at 25° C. ([3]; Anisole): 8.1 µg/mL | XRPD after heat/cool cycle ([3]; Anisole): Unassigned form | XRPD after equilibration at 25° C. ([3]; DMSO): Form A | Solubility at 25° C. ([3]; DMSO): 10820 µg/mL | XRPD after heat/cool cycle ([3]; DMSO): Form A | Solubility at 25° C. ([3]; Dichloromethane): 1750 µg/mL | XRPD after heat/cool cycle ([3]; Dichloromethane): Form C | XRPD after equilibration at 25° C. ([3]; Diethyl ether): Form C | Solubility at 25° C. ([3]; Diethyl ether): 3 µg/mL | XRPD after heat/cool cycle ([3]; Diethyl ether): Form C | XRPD after equilibration at 25° C. ([3]; Ethanol): Form C | Solubility at 25° C. ([3]; Ethanol): 880 µg/mL | XRPD after heat/cool cycle ([3]; Ethanol): Form C | XRPD after equilibration at 25° C. ([3]; Ethyl acetate): Form C | Solubility at 25° C. ([3]; Ethyl acetate): 1.8 µg/mL | XRPD after heat/cool cycle ([3]; Ethyl acetate): Form C | XRPD after equilibration at 25° C. ([3]; Heptane): Form A | Solubility at 25° C. ([3]; Heptane): 2.2 µg/mL | XRPD after heat/cool cycle ([3]; Heptane): Form A | XRPD after equilibration at 25° C. ([3]; Isopropyl acetate): Form C | Solubility at 25° C. ([3]; Isopropyl acetate): 2.8 µg/mL | XRPD after heat/cool cycle ([3]; Isopropyl acetate): Form C | XRPD after equilibration at 25° C. ([3]; MIBK): Form C | Solubility at 25° C. ([3]; MIBK): 1.8 µg/mL | XRPD after heat/cool cycle ([3]; MIBK): Form C | XRPD after equilibration at 25° C. ([3]; Methanol): Form B | Solubility at 25° C. ([3]; Methanol): 4480 µg/mL | XRPD after equilibration at 25° C. ([3]; TBME): Form A | Solubility at 25° C. ([3]; TBME): 2.3 µg/mL | XRPD after equilibration at 25° C. ([3]; Tetrahydrofuran): Form C | Solubility at 25° C. ([3]; Tetrahydrofuran): 12.5 µg/mL | XRPD after heat/cool cycle ([3]; Tetrahydrofuran): Form C | XRPD after equilibration at 25° C. ([3]; Toluene): Form A | Solubility at 25° C. ([3]; Toluene): 0.6 µg/mL | dissolution in organic solvents on heating cycle ([3]; any temperature (25° C.-75° C.), any solvent tested): Full or partial dissolution was not observed | XRPD after equilibration at 25° C. ([3]; n-Butyl acetate): Form C | Solubility at 25° C. ([3]; n-Butyl acetate): 0.7 µg/mL | XRPD after heat/cool cycle ([3]; n-Butyl acetate): Form C

— patent US20230312561A1, “SOLID FORMS OF (Z)-METHYL 3-(((4-(N-METHYL-2-(4-METHYLPIPERAZIN-1-YL)ACETAMIDO)PHENYL)AMINO)(PHENYL)METHYLENE)-2-OXO-2,3-DIHYDRO-1H-PYRROLO[2,3-B]PYRIDINE-6-CARBOXYLATE AND SALTS THEREOF” (Angion Biomedica Corp., priority 2020, published 2023)
